Test results published in US12389906B2, “Aqueous herbicidal concentrates” (Monsanto Technology LLC, priority 2014, dated 2025).

Tests used:
broadleaf weed species [1] = assay: Field Trial 2 results summary, broadleaf control; assay type: in vivo; details: 0.25 lb a.i./acre (0.28 kg/hectare), 4 WAT
Description: (§1) Four replications were completed per treatment.

SIDSP (prickly sida) = assay: Field trial 1 weed control, SIDSP; assay type: in vivo; details: 0.25 lb/acre, pre-emergence to weeds, 4 WAT
Description: as §1

ABUTH (velvetleaf) = assay: Field trial 1 weed control, ABUTH; assay type: in vivo; details: 0.25 lb/acre, pre-emergence to weeds, 4 WAT
Description: as §1

IPOLA = assay: Field trial 1 weed control, IPOLA; assay type: in vivo; details: 0.25 lb/acre, pre-emergence to weeds, 4 WAT
Description: as §1

broadleaf weed species [2] = assay: Field Trial 1 results summary, broadleaf control; assay type: in vivo; details: 0.25 lb a.i./acre (0.28 kg/hectare), 4 WAT
Description: as §1

AMAPG = assay: Field trial 1 weed control, AMAPG; assay type: in vivo, Glyphosate-resistant (GR) AMAPA; details: 0.25 lb/acre, pre-emergence to weeds, 4 WAT
Description: as §1

AMBEL (common ragweed) = assay: Field trial 1 weed control, AMBEL; assay type: in vivo; details: 0.25 lb/acre, pre-emergence to weeds, 4 WAT
Description: as §1

narrowleaf weed species [3] = assay: Field Trial 2 results summary, narrowleaf control; assay type: in vivo; details: 0.25 lb a.i./acre (0.28 kg/hectare), 4 WAT
Description: as §1

IPOHE = assay: Field trial 1 weed control, IPOHE; assay type: in vivo; details: 0.25 lb/acre, pre-emergence to weeds, 4 WAT
Description: as §1

AMATA = assay: Field trial 1 weed control, AMATA; assay type: in vivo, waterhemp; details: 0.25 lb/acre, pre-emergence to weeds, 4 WAT
Description: as §1

AMATG = assay: Field trial 1 weed control, AMATG; assay type: in vivo, Glyphosate-resistant (GR) AMATA; details: 0.25 lb/acre, pre-emergence to weeds, 4 WAT
Description: as §1

[4] = system: IPOSS (Morningglory sps.); assay: Field trial 1 weed control, IPOSS; assay type: in vivo; details: 0.25 lb/acre, pre-emergence to weeds, 4 WAT
Description: as §1

[5] = system: CHEAL (common lambsquarters); assay: Field trial 1 weed control, CHEAL; assay type: in vivo; details: 0.25 lb/acre, pre-emergence to weeds, 4 WAT
Description: as §1

AMAPA = assay: Field trial 1 weed control, AMAPA; assay type: in vivo, palmer amaranth; details: 0.25 lb/acre, pre-emergence to weeds, 4 WAT
Description: as §1

BRASS (Signalgrass sps.) = assay: Field trial 1 weed control, BRASS; assay type: in vivo; details: 0.25 lb/acre, pre-emergence to weeds, 4 WAT
Description: as §1

[6] = system: ACCOS (hophornbeam copperleaf); assay: Field trial 1 weed control, ACCOS; assay type: in vivo; details: 0.25 lb/acre, pre-emergence to weeds, 4 WAT
Description: as §1

SETFA (giant foxtail) = assay: Field trial 1 weed control, SETFA; assay type: in vivo; details: 0.25 lb/acre, pre-emergence to weeds, 4 WAT
Description: as §1

PESGL (pearl millet) = assay: Field trial 1 weed control, PESGL; assay type: in vivo; details: 0.25 lb/acre, pre-emergence to weeds, 4 WAT
Description: as §1

ECHCF = assay: Field trial 1 weed control, ECHCF; assay type: in vivo; details: 0.25 lb/acre, pre-emergence to weeds, 4 WAT
Description: as §1

SEBEX = assay: Field trial 1 weed control, SEBEX; details: 0.25 lb/acre, pre-emergence to weeds, 4 WAT
Description: A series of field trials were conducted at a variety of locations. The soil texture at these sites ranged from silty loam, silty clay loam, to sandy silt loam and sandy loam. The objective of the experiment was to evaluate the weed efficacy and length of residual efficacy of the each standalone herbicide compared to the herbicide combinations. The experiments were conducted in a randomized complete block design. Four replications were completed per treatment. Time of application was pre-emergence to weeds, and treatments were applied using a back-pack or tractor mounted sprayer.
Weed control was determined as a percentage as compared to untreated plants following a standard procedure where visual assessment of plant mortality and growth reduction is made by one specially trained to make such assessments. Across the field trials, the results for 16 broadleaf and 7 narrowleaf weed species were recorded. […] Mean percent control and standard error are calculated by the least squares method.

SORSS (Sorghum sps.) = assay: Field trial 1 weed control, SORSS; assay type: in vivo; details: 0.25 lb/acre, pre-emergence to weeds, 4 WAT
Description: as §1

HIBTR (venice mallow) = assay: Field trial 1 weed control, HIBTR; assay type: in vivo; details: 0.25 lb/acre, pre-emergence to weeds, 4 WAT
Description: as §1

MOLVE (carpetweed) = assay: Field trial 1 weed control, MOLVE; assay type: in vivo; details: 0.25 lb/acre, pre-emergence to weeds, 4 WAT
Description: as §1

DIGSA = assay: Field trial 1 weed control, DIGSA; assay type: in vivo; details: 0.25 lb/acre, pre-emergence to weeds, 4 WAT
Description: as §1

ECHCG (Echinochola sps.) = assay: Field trial 1 weed control, ECHCG; assay type: in vivo; details: 0.25 lb/acre, pre-emergence to weeds, 4 WAT
Description: as §1

EPHSS (Euphorbia sps.) = assay: Field trial 1 weed control, EPHSS; assay type: in vivo; details: 0.25 lb/acre, pre-emergence to weeds, 4 WAT
Description: as §1

DIGSS (Digitaria sps.) = assay: Field trial 1 weed control, DIGSS; assay type: in vivo; details: 0.25 lb/acre, pre-emergence to weeds, 4 WAT
Description: as §1

POROL (common purslane) = assay: Field trial 1 weed control, POROL; assay type: in vivo; details: 0.25 lb/acre, pre-emergence to weeds, 4 WAT
Description: as §1

CASOB (sicklepod) = assay: Field trial 1 weed control, CASOB; assay type: in vivo; details: 0.25 lb/acre, pre-emergence to weeds, 4 WAT
Description: as §1

narrowleaf weed species [7] = assay: Field Trial 1 results summary, narrowleaf control; assay type: in vivo; details: 0.25 lb a.i./acre (0.28 kg/hectare), 4 WAT
Description: as §1

SORHA (johnsongrass) = assay: Field trial 1 weed control, SORHA; assay type: in vivo; details: 0.25 lb/acre, pre-emergence to weeds, 4 WAT
Description: as §1

`CS(=O)(=O)NC(=O)c1cc(Oc2ccc(C(F)(F)F)cc2Cl)ccc1[N+](=O)[O-]` [Fomesafen, fomesafen] was tested, and the “Broadleaf Control” value (broadleaf weed species [1]) was 63.6%, the “% Control (mean)” value (SIDSP (prickly sida)) was 98.3% and the “% Control (mean)” value (ABUTH (velvetleaf)) was 63.7%. The “% Control (mean)” value (IPOLA) was 27.5%, the “Broadleaf Control” value (broadleaf weed species [2]) was 70% and the “% Control (mean)” value (AMAPG) was 87.8%. The “% Control (mean)” value (AMBEL (common ragweed)) was 75.8%, the “Narrowleaf Control” value (narrowleaf weed species [3]) was 66.3% and the “% Control (mean)” value (IPOHE) was 52.5%. The “% Control (mean)” value (AMATA) was 85.8%, the “% Control (mean)” value (AMATG) was 57.5% and the “% Control (mean)” value [4] was 63.1%. For the same compound, the “% Control (mean)” value [5] was 78.3%, the “% Control (mean)” value (AMAPA) was 92.5% and the “% Control (mean)” value (BRASS (Signalgrass sps.)) was 99.5%. For the same compound, the “% Control (mean)” value [6] was 93.8%, the “% Control (mean)” value (SETFA (giant foxtail)) was 58.8% and the “% Control (mean)” value (PESGL (pearl millet)) was 100.0%. The “% Control (mean)” value (ECHCF) was 71.9%, the “% Control (mean)” value (SEBEX) was 33.8% and the “% Control (mean)” value (SORSS (Sorghum sps.)) was 99.8%. The “% Control (mean)” value (HIBTR (venice mallow)) was 75.0%, the “% Control (mean)” value (MOLVE (carpetweed)) was 90.6% and the “% Control (mean)” value (DIGSA) was 65.3%. The “% Control (mean)” value (ECHCG (Echinochola sps.)) was 66.8%, the “% Control (mean)” value (EPHSS (Euphorbia sps.)) was 100.0% and the “% Control (mean)” value (DIGSS (Digitaria sps.)) was 99.0%. For the same compound, the “% Control (mean)” value (POROL (common purslane)) was 66.3%, the “% Control (mean)” value (CASOB (sicklepod)) was 46.2% and the “Narrowleaf Control” value (narrowleaf weed species [7]) was 79%. The “% Control (mean)” value (SORHA (johnsongrass)) was 86.8%.
